Laboratory results: patent US20200102293A1, “LDHA ACTIVITY INHIBITORS” (ARCTIC PHARMA AS, priority 2017, published 2020)
pIC50: −log10 of the molar value.

How the values were obtained:
LDHB = LDHB (Homo sapiens, UniProt P07195); experiment: Coupled diaphorase assay, LDHB; type: biochemical; conditions: 6 nM LDHB, 500 μM lactate, 150 μM NAD+, lactate to pyruvate direction
Text: (§1) The inhibitory properties of the compounds were investigated using a coupled enzyme assay that links the lactate dehydrogenase (LDH) reaction to the production of fluorescent resorufin by diaphorase.
(§2) Human lactate dehydrogenases (LDH) catalyze the reversible interconversion between pyruvate and lactate. LDH is capable of catalyzing both the forward (pyruvate to lactate) and the reverse (lactate to pyruvate) reaction, using either NADH or NAD+ as cofactor. The reaction proceeds in either direction dependent on various factors, such as substrate availability, the presence of necessary cofactors, temperature and pH. Different isoforms (LDH A, B, and C) of the enzyme favor different reaction directions—LDHA prefers the conversion from pyruvate to lactate, whereas LDHB preferentially oxidizes lactate to pyruvate.
(§3) The coupled assay relies on the oxidation of NAD^+ to NADH throughout the conversion of lactate to pyruvate by LDH (isoforms A, B and C). The produced NADH serves as cofactor in the diaphorase reaction, which reduces non-fluorescent resazurin to fluorescent resorufin. Therefore, the assay indirectly monitors the rate of pyruvate production. Although the consumption of NADH can be directly monitored due to the intrinsic fluorescence of the molecule (excitation: 340 nm, emission: 460 nm) there are problems linked to the direct readout method. […] Shifting the assay to longer wavelengths by coupling the LDH reaction to the conversion of resazurin to fluorescent resorufin by diaphorase reduces this compound interference. The assay direction was thus chosen to provide a robust and reliable assay.
(§4) Compounds were tested in duplicates using 2-fold, 3-fold or 4-fold serial dilutions including 11 individual concentrations, starting from 5000 μM to 30 μM. […] The controls allowed for the calculation of the percentage inhibition for each data point. […] Enzyme solution leading to final concentrations of 4-7 nM LDHA or 6 nM LDHB, as well as 0.2 U/mI diaphorase in the reaction well was dispensed into 384-well plates (Greiner bio-one) using a CyBi®-SELMA robotic pipettor. Compound dilutions and the enzyme were incubated for at least 20 min at room temperature. […] The reaction was quenched by the addition of a stop solution (final concentrations: 20 mM EDTA, 400 mM NaCl, 40 mM pyruvate). Fluorescence was read out after 5 min of incubation at an excitation wavelength of 560 nm and an emission wavelength of 590 nm on a Perkin Elmer Victor X plate reader.
(§5) Therefore, an enzyme solution only containing diaphorase was incubated with the compound dilution series.
(§6) Dose response curves were fitted in KaleidaGraph (www.synergy.com) or Dotmatics software package (www.dotmatics.com) using a standard 4-parameter fit (Levenberg-Marquardt fitting procedure), resulting in IC50 values for the test compounds.

LDHA = LDHA (Homo sapiens, UniProt P00338); experiment: Coupled diaphorase assay, LDHA; type: biochemical; conditions: 4-7 nM LDHA, 500 μM lactate, 150 μM NAD+, lactate to pyruvate direction
Text: as §1, §2, §3, §4, §5, §6

[1] = system: MIA PaCa-2 human pancreatic cells; conditions: MIA PaCa-2 cells; cited from earlier work
[2] = in vivo; cited from earlier work
LDH = conditions: in vitro; cited from earlier work
[3] = system: mice with temporal-lobe epilepsy; conditions: directly injected into the hippocampus; cited from earlier work

LDHB, sequence (P07195 whole entry): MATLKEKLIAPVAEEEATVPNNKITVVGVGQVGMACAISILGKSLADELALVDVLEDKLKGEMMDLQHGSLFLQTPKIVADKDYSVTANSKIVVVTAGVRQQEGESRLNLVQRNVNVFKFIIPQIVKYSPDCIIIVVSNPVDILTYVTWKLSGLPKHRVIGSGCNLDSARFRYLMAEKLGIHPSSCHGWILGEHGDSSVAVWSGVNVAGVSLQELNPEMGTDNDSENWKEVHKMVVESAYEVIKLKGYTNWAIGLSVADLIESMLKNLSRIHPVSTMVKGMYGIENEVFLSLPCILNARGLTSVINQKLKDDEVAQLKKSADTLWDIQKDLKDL

pIC50 (LDHB) | pIC50 (LDHA) | SMILES | also measured
< 3.70 | 4.00 to 6.00 | CCOC(=O)OC1=C(Sc2ccccc2Cl)C(=O)NC(c2ccc(Br)cc2)(c2ccsc2)C1 (stereo not drawn) [Example 1, 2-(4-bromophenyl)-5-[(2-chlorophenyl)sulfanyl]-6-oxo-2-(thiophen-3-yl)-1,2,3,6-tetrahydropyridin-4-yl ethyl carbonate] | –
– | < 3.70 | CC(C)COC(=O)OC1=C(Sc2ccccc2Cl)C(=O)NC(c2ccc(N3CCOCC3)cc2)(c2ccsc2)C1 (stereo not drawn) [Example 2, 5-((2-chlorophenyl)thio)-2-(4-morpholinophenyl)-6-oxo-2-(thiophen-3-yl)-1,2,3,6-tetrahydropyridin-4-yl isobutyl carbonate] | –
< 3.70 | < 3.70 | CCOC(=O)OC1=C(Sc2ccccc2Cl)C(=O)NC(c2ccsc2)(c2cccc(Br)n2)C1 (stereo not drawn) [Example 3, 6′-bromo-5-((2-chlorophenyl)thio)-6-oxo-2-(thiophen-3-yl)-1,2,3,6-tetrahydro-[2,2′-bipyridin]-4-yl ethyl carbonate] | –
< 3.70 | < 3.70 | COCCOC(=O)OC1=C(Sc2ccccc2Cl)C(=O)NC(c2ccsc2)(c2cccc(OCC3CCCC3)n2)C1 (stereo not drawn) [Example 4, 5-((2-chlorophenyl)thio)-6′-(cyclopentylmethoxy)-6-oxo-2-(thiophen-3-yl)-1,2,3,6-tetrahydro-[2,2′-bipyridin]-4-yl (2-methoxyethyl) carbonate] | –
– | 4.00 to 6.00 | COC(=O)OC1=C(Sc2ccccc2Cl)C(=O)NC(c2ccc(N3CCOCC3)cc2)(c2ccsc2)C1 (stereo not drawn) [Example 5, 5-((2-chlorophenyl)thio)-2-(4-morpholinophenyl)-6-oxo-2-(thiophen-3-yl)-1,2,3,6-tetrahydropyridin-4-yl methyl carbonate] | –
< 3.70 | < 3.70 | COC(=O)OC1=C(Sc2ccccc2Cl)C(=O)NC(c2ccsc2)(c2ccc(Br)cn2)C1 (stereo not drawn) [Example 6, 5′-bromo-5-((2-chlorophenyl)thio)-6-oxo-2-(thiophen-3-yl)-1,2,3,6-tetrahydro-[2,2′-bipyridin]-4-yl methyl carbonate] | –
3.70 to 4.00 | 4.00 to 6.00 | CCCCCCCCCC(=O)OC1=C(Sc2ccccc2Cl)C(=O)NC(c2ccsc2)(c2cccc(OC3COC3)n2)C1 (stereo not drawn) [Example 7, 5-((2-chlorophenyl)thio)-6′-(oxetan-3-yloxy)-6-oxo-2-(thiophen-3-yl)-1,2,3,6-tetrahydro-[2,2′-bipyridin]-4-yl decanoate] | –
4.00 to 6.00 | 4.00 to 6.00 | O=C1CC(c2ccsc2)(c2cccc(OCC3CCCC3)n2)NC(=O)C1Sc1ccccc1Cl (stereo not drawn) [Example 9, 3-((2-chlorophenyl)thio)-6-(6-(cyclopentylmethoxy)pyridin-2-yl)-6-(thiophen-3-yl)piperidine-2,4-dione, reference compound] | –
– | – | O=C1CC(c2ccc(N3CCOCC3)cc2)(c2ccsc2)NC(=O)C1Sc1ccccc1Cl (stereo not drawn) [GNE-140] | time of continuous LDHA inhibition until cell death [1]: ≥ 2 days; clearance [2]: rapid clearance
– | – | NC(=O)C(=O)O [Oxamate] | concentration range inhibiting LDH enzyme activity (LDH): mM range; effect on seizures [3]: suppress their seizures
